Reference: PubChem BioAssay (NCI)
“And” between values parts separate entries of the source, which are not always exact repeats. Identical values can stand only once.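 These data come from cells grown in 96-well plates and exposed to compound for 48 hours at five concentrations. GI50 = concentration required for 50% inhibition of growth. The concentration for full growth arrest is given as TGI.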

Legend:
Assay in all cases: growth of human tumour cells (NCI), 48 h
[1] = tested on: A498 renal
[2] = tested on: SF-539 CNS
[3] = tested on: MOLT-4 leukemia
[4] = tested on: KM12 colon
[5] = tested on: RXF 393 renal
[6] = tested on: NCI-H23 lung
[7] = tested on: K-562 leukemia
[8] = tested on: NCI-H226 lung
[9] = tested on: ACHN renal
[10] = tested on: SF-268 CNS

Compound	TGI [1]	TGI [2]	TGI [3]	TGI [4]	TGI [5]	TGI [6]	TGI [7]	TGI [8]	TGI [9]	TGI [10]	GI50 [1]	GI50 [2]	GI50 [3]	GI50 [4]	GI50 [5]	GI50 [6]	GI50 [7]	GI50 [8]	GI50 [9]	GI50 [10]
O=C(/C=C/C1C(=O)NC(=O)NC1=O)CC(=O)C(=O)Nc1cc(Cl)c(Cl)cc1Cl	> 100 µM	> 100 µM	> 100 µM	> 100 µM	> 100 µM	> 100 µM	> 100 µM	> 100 µM	> 100 µM	> 100 µM										
COc1cc(-c2cc(=O)c3c(O)c(OC)c(OC)c(OC)c3o2)cc(OC)c1OC	9.14 µM	> 54.9 µM	> 100 µM	> 100 µM	33.2 µM	> 62.5 µM	> 100 µM	> 80.1 µM	> 100 µM	> 100 µM										
Cc1ccc(/C=N/NS(=O)(=O)c2ccccc2)c(C)c1	> 100 µM	> 100 µM	> 100 µM	> 100 µM	> 100 µM	> 100 µM	> 100 µM	> 100 µM	> 100 µM	> 100 µM										
[CH3][Sn]1([CH3])[O]CC(COc2cc(Cl)c(Cl)cc2Cl)[O]1 (centres undefined)	> 100 µM	> 100 µM	> 100 µM	> 100 µM	> 100 µM	> 100 µM	> 100 µM	> 100 µM	> 100 µM	> 100 µM	70 µM	24.7 µM	> 100 µM	45.8 µM	29.1 µM	> 100 µM	> 100 µM	30.7 µM	85.5 µM	74.9 µM
O=C1/C(=C\c2ccccc2)C2OCC=C3CN4CCC56c7ccccc7N1C5C2C3CC46 (centres undefined)	48 µM	> 100 µM	> 100 µM	> 100 µM	> 100 µM	> 100 µM	> 100 µM	> 100 µM	> 100 µM	> 100 µM	3.56 µM	61.9 µM	7.23 µM	34.4 µM	35.8 µM	> 100 µM	3.33 µM	11.3 µM	7.98 µM	79.3 µM
NC(=O)c1ccc(N(C(N)=O)c2c(F)cccc2F)nc1-c1ccc(F)cc1F	> 100 µM	> 100 µM	> 100 µM	> 100 µM	> 100 µM	> 100 µM	> 100 µM	> 100 µM	> 100 µM	> 100 µM	> 45.4 µM	> 100 µM	> 100 µM	> 100 µM	> 100 µM	> 100 µM	> 100 µM	> 100 µM	> 100 µM	> 100 µM
O=c1c2ccccc2nc(-c2ccccc2)n1NC(=S)Nc1cccc(Cl)c1	> 100 µM	> 100 µM	> 100 µM	> 100 µM	67.1 µM	> 100 µM	> 100 µM	> 100 µM	> 100 µM	> 100 µM										
CC(=O)Nc1ccc(-c2nnc(SCC(=O)Nc3ccc(Cl)cc3)o2)cc1	31.7 µM	30.2 µM	32.8 µM	29 µM	22.6 µM	18.2 µM	> 100 µM	37 µM	28.5 µM	20.1 µM										
c1ccc(-c2ccnc3c2ccc2c(-c4ccccc4)ccnc23)cc1	6.99 µM	5.62 µM	2.93 µM	10.2 µM	6.05 µM	14.1 µM	11.4 µM	4.76 µM	9.45 µM	13.3 µM										
Cc1cc(Br)cc(C)c1NC(=O)C(=O)Nn1c(=S)[nH]c2ccccc2c1=O	> 100 µM	> 100 µM	> 100 µM	> 100 µM	> 100 µM	> 100 µM	> 100 µM	> 100 µM	> 100 µM	> 100 µM										
C=CC(C)(O)CC/C=C(\CO)C(=O)OC1C(C)OC(O[C@](C)(C=C)CC/C=C(\CO)C(=O)O[C@H]2C[C@@]3(C(=O)OC4OC(CO)C(O)C(O)C4OC4OC(C)C(OC5OC(CO)C(O)C5O)C(OC5OC(CO)C(O)C(O)C5O)C4O)C(CC2(C)C)C2=CCC4[C@@]5(C)CC[C@H](OC6OC(COC7OC(C)C(O)C(O)C7OC7OCC(O)C(O)C7O)C(O)C(O)C6NC(C)=O)C(C)(C)C5CC[C@@]4(C)[C@]2(C)C[C@H]3O)C(O)C1O (some centres undefined)	0.585 µM	9.77 µM	12.9 µM	1.98 µM	4.03 µM	7.49 µM	16.7 µM	1.98 µM	0.209 µM	0.893 µM	0.142 µM	4.86 µM	0.886 µM	0.285 µM	0.754 µM	2.01 µM	7.13 µM	0.363 µM	0.0771 µM	0.174 µM
CC(/C=N/N=C(N)N)=N\N=C(N)N	1890 µM	103 µM	463 µM	34.4 µM	734 µM	> 61.8 µM and 171 µM	785 µM	459 µM	2110 µM	92.4 µM	> 77.9 µM	21.8 µM	28.2 µM	21.5 µM	> 45.6 µM	31.1 µM	23.1 µM		> 43.5 µM	23.1 µM
Cc1cc2nc(-c3c(F)cccc3Cl)n(Cc3c(F)cccc3Cl)c2cc1C	32.2 µM	34.8 µM	> 100 µM	37.7 µM	28.4 µM	22.9 µM	> 100 µM	38.3 µM	45.6 µM	31.7 µM	15.5 µM	17.3 µM	30.4 µM	10.5 µM	11.8 µM	9.49 µM	39.4 µM	15 µM	14.5 µM	11 µM
